From paper PMC11364775, “Ion occupancy of the selectivity filter controls opening of a cytoplasmic gate in the K2P channel TALK-2” (Nature Communications, 2024)

Target: T1, WT TALK-2 channels (Homo sapiens, UniProt Q96T54)
T1 sequence (Q96T54 1-332): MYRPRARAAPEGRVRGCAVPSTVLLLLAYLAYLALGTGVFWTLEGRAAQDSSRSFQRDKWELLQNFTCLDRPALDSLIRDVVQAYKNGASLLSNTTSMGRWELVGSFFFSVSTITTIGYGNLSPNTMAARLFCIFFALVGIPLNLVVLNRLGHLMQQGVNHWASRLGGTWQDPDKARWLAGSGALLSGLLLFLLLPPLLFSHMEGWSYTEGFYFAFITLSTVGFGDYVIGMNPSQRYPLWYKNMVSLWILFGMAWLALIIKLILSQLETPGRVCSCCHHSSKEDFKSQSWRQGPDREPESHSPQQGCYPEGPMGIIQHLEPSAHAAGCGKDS
Assay: Conductance-voltage (G-V) curves from tail currents, V1/2 (intracellular Rb+)
Type: cell-based
Parameters: expressed in transfected cells; host or cells: Xenopus laevis oocytes (cRNA injection), excised inside-out patches
Conditions: for Normalized current: TALK-2 WT + 1 mM TPenA
Text: The voltage-dependent activation mechanism of the SF gate in K2P channels allows to estimate the electrical work (ΔG = zFΔV1/2) required for pore opening by fitting the G–V curve to a Boltzmann equation. […] The open state represents the situation of both gates being simultaneously open but voltage can only exert force on the SF gate that functions as voltage sensor. […] We further tested whether mutations that open the lower gate (L262A and L264A) would affect the extracellular pH sensitivity. […] We further explored this concept of allosteric coupling using the mutations identified in the functional alanine screen of TM2 and TM4. […]
Conductance-voltage (G–V) relationships were determined from tail currents recorded at a holding potential (VH) of −80 mV after 300 ms depolarizing steps as indicated in the respective figure legend. Data were analyzed with a single Boltzmann fit following Eq. 6:6 GV=Imax/1+e^V−V1/2/slope+Ibase where V1/2 represents the voltage of half-maximal activation, s is the slope factor and Imax and Ibase represent the upper and lower asymptotes. Under appropriate experimental conditions, you can use slope to calculate the valence (charge) of the ion moving across the channel. Slope equals R * T/ z * F where R is the universal gas constant, T is temperature in K, F is the Faraday constant, and z is the valence.

In the case of `CCCCC[N+](CCCCC)(CCCCC)CCCCC` [TPenA, Tetra-pentyl-ammonium chloride], the “leftward shift of the G-V curve” value (1 mM TPenA, intracellular Rb+) is reported as 46.1 ± 4.9 mV, the Normalized current (Voltage 0.000) is reported as 0.197 and the Normalized current (Voltage 0.005) is reported as 0.242. For the same compound, the Normalized current (Voltage 0.010) was 0.308, the Normalized current (Voltage 0.015) was 0.381 and the Normalized current (Voltage 0.020) was 0.454. The Normalized current (Voltage 0.025) was 0.532, the Normalized current (Voltage 0.030) was 0.607 and the Normalized current (Voltage 0.035) was 0.671. The Normalized current (Voltage 0.040) was 0.728, the Normalized current (Voltage 0.045) was 0.768 and the Normalized current (Voltage 0.050) was 0.808. The Normalized current (Voltage 0.055) was 0.838, the Normalized current (Voltage 0.060) was 0.865 and the Normalized current (Voltage 0.065) was 0.890. The Normalized current (Voltage 0.070) was 0.906, the Normalized current (Voltage 0.075) was 0.928 and the Normalized current (Voltage 0.080) was 0.937. The Normalized current (Voltage 0.085) was 0.948, the Normalized current (Voltage 0.090) was 0.958 and the Normalized current (Voltage 0.095) was 0.967. It also gave a Normalized current (Voltage 0.100) of 0.967, a Normalized current (Voltage 0.105) of 0.966 and a Normalized current (Voltage 0.110) of 0.976. For the same compound, the Normalized current (Voltage 0.115) was 0.977, the Normalized current (Voltage 0.120) was 0.974 and the Normalized current (Voltage 0.125) was 0.985. The Normalized current (Voltage 0.130) was 0.971, the Normalized current (Voltage 0.135) was 0.973 and the Normalized current (Voltage 0.140) was 0.960. For the same compound, the Normalized current (Voltage 0.145) was 0.967, the Normalized current (Voltage 0.150) was 0.968 and the Normalized current (Voltage 0.155) was 0.943. It also gave a Normalized current (Voltage 0.160) of 0.968, a Normalized current (Voltage -0.005) of 0.160 and a Normalized current (Voltage -0.010) of 0.136. For the same compound, the Normalized current (Voltage -0.015) was 0.121, the Normalized current (Voltage -0.020) was 0.109 and the Normalized current (Voltage -0.025) was 0.102. The Normalized current (Voltage -0.030) was 0.098, the Normalized current (Voltage -0.035) was 0.094 and the Normalized current (Voltage -0.040) was 0.089. It also gave a Normalized current (Voltage -0.045) of 0.087, a Normalized current (Voltage -0.050) of 0.085 and a Normalized current (Voltage -0.055) of 0.083. The Normalized current (Voltage -0.060) was 0.079, the Normalized current (Voltage -0.065) was 0.079 and the Normalized current (Voltage -0.070) was 0.079. The Normalized current (Voltage -0.075) was 0.077, the Normalized current (Voltage -0.080) was 0.077 and the Normalized current (Voltage -0.085) was 0.078. For the same compound, the Normalized current (Voltage -0.090) was 0.077, the Normalized current (Voltage -0.095) was 0.078 and the Normalized current (Voltage -0.100) was 0.076. The Normalized current (Voltage -0.105) was 0.077, the Normalized current (Voltage -0.110) was 0.079 and the Normalized current (Voltage -0.115) was 0.077. For the same compound, the Normalized current (Voltage -0.120) was 0.077 and the V1/2 (TALK-2 WT, 1 mM ligand) was 25.5 mV.
